From ChEMBL document CHEMBL1127113, “Diaryl ether/carboxylic acid derivatives of LY255283: Receptor antagonists of leukotriene B4” (Bioorg Med Chem Lett, 1993)

Experiments:
Leukotriene B4 receptor = Leukotriene B4 receptor (Homo sapiens, UniProt Q9NPC1+Q15722); assay: Inhibition of specific binding of [3H]LTB4 to LTB4 receptor in human neutrophils; format: protein assay
[1] = biological target: Leukotriene B4 receptor (Cavia porcellus); assay: Inhibition of specific binding of [3H]-LTB4 to LTB4 receptor in guinea pig lung membranes
Homo sapiens = organism: Homo sapiens; assay: The compound was evaluated for its ability to inhibit LTB4-induced chemotaxis of human neutrophils; format: functional

Compound | IC50 (Leukotriene B4 receptor) [nM] | Ki [1] [nM] | IC50 (Homo sapiens) [nM]
CCc1cc(C(C)=O)c(O)cc1OCCCOc1cccc(Oc2cccc(C(=O)[O-])c2)c1.[Na+] | 460 | 140 | –
CCCc1c(OCCCCOc2cc(O)c(C(C)=O)cc2CC)cccc1Oc1ccccc1C(=O)[O-].[Na+] | 94 | 59 | 3100
CCc1cc(C(C)=O)c(O)cc1OCCCOc1cccc(Oc2ccccc2C(=O)[O-])c1.[Na+] | 290 | 130 | –
CCCc1c(OCCCOc2cc(O)c(C(C)=O)cc2CC)cccc1OCc1ccccc1C(=O)[O-].[Na+] | 130 | 244 | 1200
CCc1cc(C(C)=O)c(O)cc1OCCCOc1ccc(Oc2ccc(C(=O)[O-])cc2)cc1.[Na+] | 190 | 90 | –
CCCc1cc(Oc2cccc(C(=O)[O-])c2)ccc1OCCCOc1cc(O)c(C(C)=O)cc1CC.[Na+] | 160 | 256 | –
CCCc1c(OCCCOc2cc(O)c(C(C)=O)cc2CC)cccc1Oc1ccccc1C(=O)[O-].[Na+] | 24 | 39 | 790
CCCc1cc(Oc2ccc(C(=O)[O-])cc2)ccc1OCCCOc1cc(O)c(C(C)=O)cc1CC.[Na+] | 330 | 1200 | –
